This note sets out measurements from patent US4029799A, “Certain analgesically active substituted benzyl pyridine compounds” (Laboratorios Made, S.A., priority 1975, dated 1977).

Series [1] can be described thus: Acute toxicity (i.p.), method of Lichfield and Wilcoxon. It is filed as in vivo, I.C.R. Swiss mice, both sexes. To be noted: mouse, in vivo, ip, mice, read-out: Lethal dose 50 (LD50). How it is done: (§1) acute toxicity studies were carried out in I.C.R. Swiss mice weighing 24± 2 g, of both sexes. The products were administered intraperitoneally (i.p.). Acute toxicity was calculated by the method of Lichfield and Wilcoxon.

The next series deals with I.C.R. Swiss mice. The series is described as above. It is filed as in vivo, both sexes. The protocol:
as §1

In series [2] the test system is female albino I.C.R. Swiss mice. Nature of the series: Analgesic activity, Hot Plate Test at 55° C. To be noted: for Jump-off time: 30 minutes after administration, average ± standard mean error, control 77 ± 9.272. It is filed as in vivo. How it is done:
the analgesic activity of 2-(3,4,5-trimethoxybenzyl)-3,4-dimethylpyridine compound (I) was investigated in female albino I.C.R. Swiss mice weighing 24± 2 g. For this the Hot Plate Test was used at 55° C. 4 groups of mice each comprising 10 animals, were assembled. The distribution of the groups was according to the following scheme:-
Group 1-- Control - 0.2 ml of distilled H2 O
Group 2-- Compound I-0.2 ml of a solution of 2-(3,4,5-trimethoxybenzyl)-3,4-dimethylpyridine (I), 3 mg/ml.
Group 3-- Compound I-0.2 ml of a solution of 2-(3,4,5-trimethoxybenzyl)-3,4-dimethylpyridine (I), 6 mg/ml.
Group 4-- Dextropropoxyphene - 0.2 ml of a solution of dextropropoxyphene, 6 mg/ml.
The products were injected intraperitoneally, and the measurements of analgesia were made 30 minutes after the administration of the drugs. Note was taken of the time taken for an animal to jump off the hot plate.
For orientation: Thermal pain tests record how soon the animal reacts.

Broadly, the LD50 is the dose expected to kill half of the subjects tested. As to `COc1cc(Cc2nccc(C)c2C)cc(OC)c1OC` [Compound I, 2-(3,4,5-trimethoxybenzyl)-3,4-dimethylpyridine], the LD50 in series [1] was found to be 250 mg/kg. Moreover, the “toxicity compared with d-propoxyphene” value in the series on I.C.R. Swiss mice was “less toxic”. The “Jump-off time” value was 77 ± 8.203 s in series [2] (25 mg/kg i.p.) and 133.5 ± 12.581 s in series [2] (50 mg/kg i.p.). Also, in series [2] (25 mg/kg i.p., N.S. or p value), the “Significance (jump-off time)” value is “N.S”. Besides, the “analgesic activity compared with d-propoxyphene” value in series [2] (for equal doses, Hot Plate Test) is recorded as “more analgesic than d-propoxyphene”. The “therapeutic index compared with dextropropoxyphene” value in series [2] (from analgesia and acute toxicity in mice) is on record as “greater than that of dextropropoxyphene”.

For the compound `CCC(=O)O[C@](Cc1ccccc1)(c1ccccc1)[C@H](C)CN(C)C` [Dextropropoxyphene, reference compound], in series [2] (50 mg/kg i.p.), the “Jump-off time” value stood at 102.4 ± 10.302 s.
